# According to patent US20210300936A1, “PYRAZOLOTRIAZOLOPYRIMIDINE DERIVATIVES AS A2A RECEPTOR ANTAGONIST” (BEIGENE, LTD., priority 2018, published 2021):
# Target: human A2A receptor (A2AR) (Homo sapiens, UniProt P29274)
# Assay: Luciferase reporter assay (HEK293-A2AR-luc2p/CRE/Hygro cells, 3 nM CGS21680)
# Type: cell-based
# Details: 3 nM CGS21680, 5 h incubation
# Outline: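 HEK293 cells stably expressing A2AR with a CRE-luc2P reporter were seeded in 1% FBS with 1 U/mL adenosine deaminase. After 18 h, cells got 3 nM CGS21680 plus antagonist at 0.1–10000 nM for 5 h, followed by a luciferase readout. IC50 is relative to the 3 nM CGS21680 signal, set as 100%.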
# human A2A receptor (A2AR), sequence (P29274 whole entry): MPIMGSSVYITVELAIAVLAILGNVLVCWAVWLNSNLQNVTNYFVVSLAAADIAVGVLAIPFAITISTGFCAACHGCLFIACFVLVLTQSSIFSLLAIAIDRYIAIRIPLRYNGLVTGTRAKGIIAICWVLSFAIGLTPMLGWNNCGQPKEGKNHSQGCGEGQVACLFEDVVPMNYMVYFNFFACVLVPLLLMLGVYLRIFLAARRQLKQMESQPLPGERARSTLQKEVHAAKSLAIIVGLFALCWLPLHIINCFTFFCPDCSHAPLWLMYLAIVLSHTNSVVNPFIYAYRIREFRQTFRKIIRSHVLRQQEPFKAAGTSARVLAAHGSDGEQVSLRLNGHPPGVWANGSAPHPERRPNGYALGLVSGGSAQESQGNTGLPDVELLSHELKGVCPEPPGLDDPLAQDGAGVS
row,Compound,IC50 [nM]
1,"COCCOc1cc(F)c(N2CCN(C(=O)C(C)(c3ccccc3)n3ncc4c3nc(N)n3nc(-c5ccco5)nc43)CC2)cc1F (stereo not drawn) [Compound A65, 2-(5-amino-2-(furan-2-yl)-7H-pyrazolo[4,3-e][1,2,4]triazolo[1,5-c]pyrimidin-7-yl)-1-(4-(2,5-difluoro-4-(2-methoxyethoxy)phenyl)piperazin-1-yl)-2-phenylpropan-1-one]",6.4
2,"COCCOc1cc(F)c(N2CCN(C(=O)[C@](C)(c3ccccc3)n3ncc4c3nc(N)n3nc(-c5ccco5)nc43)CC2)cc1F [Compound A65a, (S)-2-(5-amino-2-(furan-2-yl)-7H-pyrazolo[4,3-e][1,2,4]triazolo[1,5-c]pyrimidin-7-yl)-1-(4-(2,5-difluoro-4-(2-methoxyethoxy)phenyl)piperazin-1-yl)-2-phenylpropan-1-one]",21.4
3,"COCCOc1cc(F)c(N2CCN(C(=O)[C@@](C)(c3ccccc3)n3ncc4c3nc(N)n3nc(-c5ccco5)nc43)CC2)cc1F [Compound A65b, (R)-2-(5-amino-2-(furan-2-yl)-7H-pyrazolo[4,3-e][1,2,4]triazolo[1,5-c]pyrimidin-7-yl)-1-(4-(2,5-difluoro-4-(2-methoxyethoxy)phenyl)piperazin-1-yl)-2-phenylpropan-1-one]",3.3
4,"COCCOc1ccc(N2CCN(C(=O)C(C)(c3ccccc3)n3ncc4c3nc(N)n3nc(-c5ccco5)nc43)CC2)cc1F (stereo not drawn) [Compound A66, 2-(5-amino-2-(furan-2-yl)-7H-pyrazolo[4,3-e][1,2,4]triazolo[1,5-c]pyrimidin-7-yl)-1-(4-(3-fluoro-4-(2-methoxyethoxy)phenyl)piperazin-1-yl)-2-phenylpropan-1-one]",6.5
5,"COCCOc1ccc(N2CCN(C(=O)[C@](C)(c3ccccc3)n3ncc4c3nc(N)n3nc(-c5ccco5)nc43)CC2)cc1F [Compound A66a, (S)-2-(5-amino-2-(furan-2-yl)-7H-pyrazolo[4,3-e][1,2,4]triazolo[1,5-c]pyrimidin-7-yl)-1-(4-(3-fluoro-4-(2-methoxyethoxy)phenyl)piperazin-1-yl)-2-phenylpropan-1-one]",16.8
6,"COCCOc1ccc(N2CCN(C(=O)C(C)(c3ccccc3)n3ncc4c3nc(N)n3nc(-c5ccco5)nc43)CC2)c(F)c1F (stereo not drawn) [Compound A67, 2-(5-amino-2-(furan-2-yl)-7H-pyrazolo[4,3-e][1,2,4]triazolo[1,5-c]pyrimidin-7-yl)-1-(4-(2,3-difluoro-4-(2-methoxyethoxy)phenyl)piperazin-1-yl)-2-phenylpropan-1-one]",8.9
7,"C[C@@](C(=O)N1CCN(c2ccc(F)cc2)CC1)(c1ccccc1)n1ncc2c1nc(N)n1nc(-c3ccco3)nc21 [Compound A70a, (S)-2-(5-amino-2-(furan-2-yl)-7H-pyrazolo[4,3-e][1,2,4]triazolo[1,5-c]pyrimidin-7-yl)-1-(4-(4-fluorophenyl)piperazin-1-yl)-2-phenylpropan-1-one]",10.1
8,"CN(C)CCOc1ccc(N2CCN(C(=O)C(C)(c3ccccc3)n3ncc4c3nc(N)n3nc(-c5ccco5)nc43)CC2)cc1 (stereo not drawn) [Compound A71, 2-(5-amino-2-(furan-2-yl)-7H-pyrazolo[4,3-e][1,2,4]triazolo[1,5-c]pyrimidin-7-yl)-1-(4-(4-(2-(dimethylamino)ethoxy)phenyl)piperazin-1-yl)-2-phenylpropan-1-one]",7.5
9,"COCCOc1ccc(N2CCN(C(=O)C(C)(c3ccccc3)n3ncc4c3nc(N)n3nc(-c5ccco5)nc43)[C@@H](C)C2)cc1 (stereo partly drawn) [Compound A72, 2-(5-amino-2-(furan-2-yl)-7H-pyrazolo[4,3-e][1,2,4]triazolo[1,5-c]pyrimidin-7-yl)-1-((S)-4-(4-(2-methoxyethoxy)phenyl)-2-methylpiperazin-1-yl)-2-phenylpropan-1-one]",103
10,"COCCOc1ccc(N2CCN(C(=O)C(C)(c3ccccc3)n3ncc4c3nc(N)n3nc(-c5ccco5)nc43)C[C@H]2C)cc1 (stereo partly drawn) [Compound A73, 2-(5-amino-2-(furan-2-yl)-7H-pyrazolo[4,3-e][1,2,4]triazolo[1,5-c]pyrimidin-7-yl)-1-((R)-4-(4-(2-methoxyethoxy)phenyl)-3-methylpiperazin-1-yl)-2-phenylpropan-1-one]",15.6
11,"COCCOc1ccc(N2CCN(C(=O)C(C)(c3ccccc3)n3ncc4c3nc(N)n3nc(-c5ccco5)nc43)C[C@@H]2C)cc1 (stereo partly drawn) [Compound A74, 2-(5-amino-2-(furan-2-yl)-7H-pyrazolo[4,3-e][1,2,4]triazolo[1,5-c]pyrimidin-7-yl)-1-((S)-4-(4-(2-methoxyethoxy)phenyl)-3-methylpiperazin-1-yl)-2-phenylpropan-1-one]",5.1
12,"COCCOc1ccc(N2CCN(C(=O)C(C)(c3cccc(C)c3)n3ncc4c3nc(N)n3nc(-c5ccco5)nc43)CC2)cc1 (stereo not drawn) [Compound A75, 2-(5-amino-2-(furan-2-yl)-7H-pyrazolo[4,3-e][1,2,4]triazolo[1,5-c]pyrimidin-7-yl)-1-(4-(4-(2-methoxyethoxy)phenyl)piperazin-1-yl)-2-(m-tolyl)propan-1-one]",6.4
13,"COc1ccccc1N1CCN(C(=O)C(C)(c2ccccc2)n2ncc3c2nc(N)n2nc(-c4ccco4)nc32)CC1 (stereo not drawn) [Compound A78, 2-(5-amino-2-(furan-2-yl)-7H-pyrazolo[4,3-e][1,2,4]triazolo[1,5-c]pyrimidin-7-yl)-1-(4-(2-methoxyphenyl)piperazin-1-yl)-2-phenylpropan-1-one]",6.2
14,"CC(C(=O)N1CCN(c2ccc(OCCCN3CCCC3)cc2)CC1)(c1ccccc1)n1ncc2c1nc(N)n1nc(-c3ccco3)nc21 (stereo not drawn) [Compound A79, 2-(5-amino-2-(furan-2-yl)-7H-pyrazolo[4,3-e][1,2,4]triazolo[1,5-c]pyrimidin-7-yl)-2-phenyl-1-(4-(4-(3-(pyrrolidin-1-yl)propoxy)phenyl)piperazin-1-yl)propan-1-one]",7.1

# The remaining compounds from weak to strong by IC50, led by results:
row,IC50 [nM],Compound
1,19.1,"C[C@@](C(=O)N1CCN(c2ccc(OCCCN3CCOCC3)cc2)CC1)(c1ccccc1)n1ncc2c1nc(N)n1nc(-c3ccco3)nc21 [Compound A76a, (S)-2-(5-amino-2-(furan-2-yl)-7H-pyrazolo[4,3-e][1,2,4]triazolo[1,5-c]pyrimidin-7-yl)-1-(4-(4-(3-morpholinopropoxy)phenyl)piperazin-1-yl)-2-phenylpropan-1-one]"
2,7.3,"CC(C(=O)N1CCN(c2ccc(OCCCN3CCOCC3)cc2)CC1)(c1ccccc1)n1ncc2c1nc(N)n1nc(-c3ccco3)nc21 (stereo not drawn) [Compound A76, 2-(5-amino-2-(furan-2-yl)-7H-pyrazolo[4,3-e][1,2,4]triazolo[1,5-c]pyrimidin-7-yl)-1-(4-(4-(3-morpholinopropoxy)phenyl)piperazin-1-yl)-2-phenylpropan-1-one]"
3,5,"CC(C(=O)N1CCN(c2ccc(F)cc2)CC1)(c1ccccc1)n1ncc2c1nc(N)n1nc(-c3ccco3)nc21 (stereo not drawn) [Compound A70, 2-(5-amino-2-(furan-2-yl)-7H-pyrazolo[4,3-e][1,2,4]triazolo[1,5-c]pyrimidin-7-yl)-1-(4-(4-fluorophenyl)piperazin-1-yl)-2-phenylpropan-1-one]"
4,4.4,"CC(C(=O)N1CCN(c2ccc(F)cc2F)CC1)(c1ccccc1)n1ncc2c1nc(N)n1nc(-c3ccco3)nc21 (stereo not drawn) [Compound A68, 2-(5-amino-2-(furan-2-yl)-7H-pyrazolo[4,3-e][1,2,4]triazolo[1,5-c]pyrimidin-7-yl)-1-(4-(2,4-difluorophenyl)piperazin-1-yl)-2-phenylpropan-1-one]"
5,4.2,"COc1cccc(N2CCN(C(=O)C(C)(c3ccccc3)n3ncc4c3nc(N)n3nc(-c5ccco5)nc43)CC2)c1 (stereo not drawn) [Compound A77, 2-(5-amino-2-(furan-2-yl)-7H-pyrazolo[4,3-e][1,2,4]triazolo[1,5-c]pyrimidin-7-yl)-1-(4-(3-methoxyphenyl)piperazin-1-yl)-2-phenylpropan-1-one]"
6,3.9,"C[C@](C(=O)N1CCN(c2ccc(OCCCN3CCOCC3)cc2)CC1)(c1ccccc1)n1ncc2c1nc(N)n1nc(-c3ccco3)nc21 [Compound A76b, (R)-2-(5-amino-2-(furan-2-yl)-7H-pyrazolo[4,3-e][1,2,4]triazolo[1,5-c]pyrimidin-7-yl)-1-(4-(4-(3-morpholinopropoxy)phenyl)piperazin-1-yl)-2-phenylpropan-1-one]"
7,3.4,"CC(C(=O)N1CCN(c2ccccc2F)CC1)(c1ccccc1)n1ncc2c1nc(N)n1nc(-c3ccco3)nc21 (stereo not drawn) [Compound A69, 2-(5-amino-2-(furan-2-yl)-7H-pyrazolo[4,3-e][1,2,4]triazolo[1,5-c]pyrimidin-7-yl)-1-(4-(2-fluorophenyl)piperazin-1-yl)-2-phenylpropan-1-one]"
8,3.4,"C[C@](C(=O)N1CCN(c2ccc(F)cc2)CC1)(c1ccccc1)n1ncc2c1nc(N)n1nc(-c3ccco3)nc21 [Compound A70b, (R)-2-(5-amino-2-(furan-2-yl)-7H-pyrazolo[4,3-e][1,2,4]triazolo[1,5-c]pyrimidin-7-yl)-1-(4-(4-fluorophenyl)piperazin-1-yl)-2-phenylpropan-1-one]"
9,3.3,"COCCOc1ccc(N2CCN(C(=O)[C@@](C)(c3ccccc3)n3ncc4c3nc(N)n3nc(-c5ccco5)nc43)CC2)cc1F [Compound A66b, (R)-2-(5-amino-2-(furan-2-yl)-7H-pyrazolo[4,3-e][1,2,4]triazolo[1,5-c]pyrimidin-7-yl)-1-(4-(3-fluoro-4-(2-methoxyethoxy)phenyl)piperazin-1-yl)-2-phenylpropan-1-one]"
10,2.2,"COCCOc1ccc(N2CCN(C(=O)[C@@](C)(c3ccccc3)n3ncc4c3nc(N)n3nc(-c5ccco5)nc43)CC2)c(F)c1 [Compound A64b, (R)-2-(5-amino-2-(furan-2-yl)-7H-pyrazolo[4,3-e][1,2,4]triazolo[1,5-c]pyrimidin-7-yl)-1-(4-(2-fluoro-4-(2-methoxyethoxy)phenyl)piperazin-1-yl)-2-phenylpropan-1-one]"
